Laboratory results reported in patent US6399664B2, “Method of treating cancer, specifically leukemia, with ozone” (priority 1996, dated 2002).

Legend:
[1] = tested on: chronic myeloid leukemia (CML); experiment: Conventional chemotherapy with Hydroxyurea of CML canine #198675
[2] = tested on: cultured human cancerous cell lines derived from lung, breast and uterine solid tumours; conditions: little damage to normal cell growth; cited from earlier work
[3] = tested on: cytokine levels such as IL-1, IL-2 and IFN-γ; conditions: in humans; cited from earlier work
[4] = tested on: normal human peripheral blood mononuclear cells (PBMC); experiment: Normal human PBMC colony formation in methylcellulose medium; assay type: cell-based; conditions: ozone 5, 10, 15, 25 μg/ml
Description: (§1) Ozone and ROI's were generated using medical grade oxygen from a high voltage corona discharge electrical ozone generator (Carpendale and Freeberg, 1991; Viebahn, 1994; FIG. 13). Liquid RPMI complete media suspension of K562 cell cultures or normal human whole blood (10 ml each treatment) was processed through a micro-bubbling device at several ozone concentrations (5, 10, 15, and 25 μg/ml). In addition, a 100% oxygen treated and non-processed control samples were also examined. After processing, complete blood counts were measured on all whole blood samples. Peripheral blood mononuclear cells (PBMC) were isolated using a standard density gradient of 1.077 g/ml and washed with Iscove's medium. Viability and cell counts were determined manually using a hemocytrometer and a 4% solution of Trypan blue. Cell concentrations were adjusted to 2.0×10^6 cells/ml. Cells were mixed in a 1:10 (v/v) ratio with methylcellulose medium with recombinant growth factors (#HCC-4434, StemCell Technologies Inc.) and plated to contain 2×10^5 cells per plate in duplicate for normal PBMCs and 2×10^4 for K562 cells. Plates were incubated at 37° C. in a CO2/O2 incubator. Colonies were scored on day 5, 8, 10 and day 14 according to the scoring criteria by StemCell Technologies. […]

K562 leukemic cell line = experiment: K562 colony formation and differentiation in methylcellulose medium; assay type: cell-based, human
Description: Ozone and ROI's were generated using medical grade oxygen from a high voltage corona discharge electrical ozone generator (Carpendale and Freeberg, 1991; Viebahn, 1994; FIG. 13). Liquid RPMI complete media suspension of K562 cell cultures or normal human whole blood (10 ml each treatment) was processed through a micro-bubbling device at several ozone concentrations (5, 10, 15, and 25 μg/ml). In addition, a 100% oxygen treated and non-processed control samples were also examined. After processing, complete blood counts were measured on all whole blood samples. Peripheral blood mononuclear cells (PBMC) were isolated using a standard density gradient of 1.077 g/ml and washed with Iscove's medium. Viability and cell counts were determined manually using a hemocytrometer and a 4% solution of Trypan blue. Cell concentrations were adjusted to 2.0×10^6 cells/ml. Cells were mixed in a 1:10 (v/v) ratio with methylcellulose medium with recombinant growth factors (#HCC-4434, StemCell Technologies Inc.) and plated to contain 2×10^5 cells per plate in duplicate for normal PBMCs and 2×10^4 for K562 cells. Plates were incubated at 37° C. in a CO2/O2 incubator. Colonies were scored on day 5, 8, 10 and day 14 according to the scoring criteria by StemCell Technologies. The data results for cell viability, total colonies (proliferation) and individual colony cell types (differentiation) are presented in FIGS. 1-8.

[5] = tested on: K562, Human CML cell line; experiment: K562 viability by Trypan blue exclusion after ozone micro-bubbling; assay type: cell-based; conditions: ozone 5, 10, 15, 25 μg/ml
Description: as §1

[6] = tested on: normal human peripheral blood leukocytes; experiment: Effects of ozone on normal human leukocytes run in parallel; assay type: cell-based; conditions: at the concentrations used
Description: as §1

[7] = tested on: chronic myeloid leukemia (CML); experiment: Ozone/ROI therapy (iv injection, adjunct minor autohemotherapy) of CML canine #198675; assay type: in vivo
Description: The attending veterinarian discussed euthanasia and the ozone or ROI therapy described in this invention with the owner under strict confidence. The owner and all attending veterinarians signed consent and confidentiality forms and the ozone or ROI therapy began on Sep. 23, 1997 and continued for 16 weeks. Prior to each weekly ozone or ROI treatment the patient's complete blood counts were measured using a Coulter Counter Hematology Analyzer (Coulter Electronics Canada Co.). The leukocyte differential counts were determined manually by the pathologist and recorded in FIG. 14. Ozone and ROI's were generated from a high voltage corona discharge electrical ozone generator using medical grade oxygen as shown in FIG. 13. Ozone/oxygen gas (30 to 60 ml) was injected intra-venously (iv) through a sterile catheter needle (Abbocath-T, 22 g×11⁄4 in.; Abbott Ireland) inserted in the leg vein of the mammal (canine #198675) with a sterile extension set (79 cm, […], Abbott Ireland) attached to the syringe containing the ozone ROI gas mixture. The ozone/oxygen gas mixture was slowly injected over a 10 to 20 minute period to allow maximum gas absorption. The secondary or adjunct to the preferred route of administration was minor autohemotherapy (minor AHT) where heparinized whole blood (7 ml each treatment) was gently mixed in a disposable syringe or devise with increasing doses of ozone to a maximum of 25 ml at 34 to 42 μg/ml (dose is species specific). The blood gas mixture was allowed to equilibrate at room temperature for 1 to 5 minutes with intermittent mixing. The excess gas was evacuated prior to intramuscular (im) or subcutaneous (sc) injection of the ozonated blood at several locations. Patients were accessed prior to, during and post treatment by blood tests, clinical response, and biopsy when appropriate.

[8] = 500 mg twice daily for approximately one year
[9] = 16 μg/ml ozone injected, up to 197 ug total, in vivo concentration less than 0.25 μg/ml
[10] = 28 to 42 μg/ml ozone injected, up to 2100 ug total, in vivo concentration 0.5 to 1.5 μg/ml

With NC(=O)NO [Hydroxyurea] the RBC counts [1, 8] was “increased with time”, the “WBC levels relative to normal canine range of 6.1 to 17.4×10^9 cells per liter” value [1, 8] was “never returned to the normal canine range” and the “side effects (clinical presentation)” value [1, 8] was “depression, lethargy, severe to mild diarrhea, anorexia, vomiting, weight loss, occasionally vaginal bleeding, abdominal pain and splenomegaly”. For the same compound, the “total WBC counts” value [1, 8] was “decrease” and the “time of entering blast crisis after cessation of conventional chemotherapy” value ([1]; after one year of chemotherapy) was 1.5 months.
In the case of O=[O+][O-] [ozone], the “growth of cultured human cancerous cell lines” value [2] is given as “selectively inhibit the growth”, the “cytokine levels such as IL-1, IL-2 and IFN-γ” value [3] is given as “increases cytokine levels” and the “effects in the colonies from normal human PBMC” value [4] is given as “no deleterious effects”. For the same compound, the “colony differentiation, dose response” value (K562 leukemic cell line; increasing concentrations of ozone) was “increased colony differentiation into normal cells”, the “production of normal hematopoietic colonies (CFU-E, BFU-E, GM-CFU, CFU-GEMM) from K562” value (K562 leukemic cell line; ozone 5, 10, 15, 25 μg/ml) was “stimulates the production of normal hematopoietic colonies” and the “proliferation of leukemia derived colonies” value (K562 leukemic cell line; ozone 5, 10, 15, 25 μg/ml, total colonies) was “inhibits the proliferation”. For the same compound, the “viability of malignant cells” value [5] was “reduction in the viability”, the “effects on normal human leukocytes” value [6] was “no significant deleterious effects” and the “effect on canine hematopoietic system” value [7, 9] was “significant activation”. For the same compound, the “production of leukemic cells” value [7, 9] was “significant increase”, the “progression of CML (total WBC and RBC counts)” value ([7]; 16 week treatment) was “reversed the progression of CML” and the “effect on canine hematopoietic system” value [7, 10] was “significant inhibition”. The “production of leukemic cells” value [7, 10] was “significant reduction”, the “patient's quality of life” value ([7]; CML canine #198675, weekly ozone/ROI treatment, 16 weeks) was “increase” and the diarrhea ([7]; CML canine #198675, diarrhea not related to CML) was “slight improvement in the diarrhea, although only temporary”. For the same compound, the vomiting ([7]; after the first two weeks of treatment) was “decrease”, the “ability of the immature stem cell to differentiate into the different blood cell types” value ([7]; ozone dose dependent, 16 to 42 μg/ml generated ozone concentration) was “improved” and the “total WBC counts” value ([7]; with the increase of the internal ozone concentration in the mammal) was “decrease”.
